Earlier results in patent US12378302B2, “Fusion molecules and uses thereof” (Foundation Medicine, Inc., priority 2012, dated 2025).
Read-outs that look alike come from different tables or passages of the source.

Assays:
[1] = test system: early stage NSCLC patients; settings: Phase 2 trial
[2] = test system: advanced cervical cancer; settings: Phase 2, pazopanib arm compared to lapatinib therapy
[3] = test system: advanced urothelial cancer; settings: Phase 2, single agent
[4] = biological target: PI3Kγ (Homo sapiens, UniProt P48736); settings: read-out: Ki PI3Kγ (p110γ)
[5] = test system: PDGFRβ, IGF-1R, EGFR
[6] = test system: glioblastoma cell lines
[7] = biological target: ErbB3 (Homo sapiens, UniProt P21860)
[8] = biological target: T1, ErbB4 (Homo sapiens, UniProt Q15303)
T1 construct: host or cells: glioblastoma cell lines

[9] = test system: pancreatic cancer; settings: Phase 2, gefitinib with gemcitabine
[10] = test system: pancreatic cancer; settings: Phase 2, pancreatic cancer
[11] = test system: KIF5B-RET transformed cells; settings: Lipson et al
[12] = test system: advanced non-small cell lung cancer
[13] = biological target: T2, PDGFRα (Homo sapiens, UniProt P16234); settings: read-out: IC50 against PDGFRα
[14] = biological target: T2, PDGFRα
[15] = test system: Vps34, AKT, PDK1, p70S6K, MEK, ERK, p38, or JNK
[16] = test system: panel of 12 PMTs and DNMT1
[17] = test system: PI3Ks
[18] = biological target: FKBP12 (Homo sapiens, UniProt P62942); settings: read-out: IC50 mTOR inhibitor of FKBP12
[19] = test system: all four Fgfr kinases
[20] = test system: all four Fgfr kinases; settings: preclinical studies
[21] = test system: Akt and PDK1
[22] = test system: PDGFR; settings: read-out: IC50 PDGFR
[23] = test system: Smad4-null cells; settings: pre-clinical mouse models
[24] = test system: MTC; settings: randomized Phase 3, vandetanib compared to placebo
[25] = test system: VEGFR-stimulated cells; settings: read-out: IC50 cell proliferation of VEGFR-stimulated cells
[26] = test system: EGFR-stimulated HUVEC; settings: read-out: IC50 EGFR-stimulated HUVEC proliferation
[27] = test system: VEGFR-stimulated cells; settings: read-out: IC50 cell proliferation of VEGFR-stimulated cells; remark: listed apart in the source
[28] = test system: EGFR-stimulated HUVEC; settings: read-out: IC50 EGFR-stimulated HUVEC proliferation; remark: listed apart in the source
[29] = biological target: inactive form of ErbB4 (Homo sapiens, UniProt Q15303); settings: region conserved in all EGF family members
[30] = test system: cells expressing FGFR1 fusions

T1 sequence (Q15303 26-1308): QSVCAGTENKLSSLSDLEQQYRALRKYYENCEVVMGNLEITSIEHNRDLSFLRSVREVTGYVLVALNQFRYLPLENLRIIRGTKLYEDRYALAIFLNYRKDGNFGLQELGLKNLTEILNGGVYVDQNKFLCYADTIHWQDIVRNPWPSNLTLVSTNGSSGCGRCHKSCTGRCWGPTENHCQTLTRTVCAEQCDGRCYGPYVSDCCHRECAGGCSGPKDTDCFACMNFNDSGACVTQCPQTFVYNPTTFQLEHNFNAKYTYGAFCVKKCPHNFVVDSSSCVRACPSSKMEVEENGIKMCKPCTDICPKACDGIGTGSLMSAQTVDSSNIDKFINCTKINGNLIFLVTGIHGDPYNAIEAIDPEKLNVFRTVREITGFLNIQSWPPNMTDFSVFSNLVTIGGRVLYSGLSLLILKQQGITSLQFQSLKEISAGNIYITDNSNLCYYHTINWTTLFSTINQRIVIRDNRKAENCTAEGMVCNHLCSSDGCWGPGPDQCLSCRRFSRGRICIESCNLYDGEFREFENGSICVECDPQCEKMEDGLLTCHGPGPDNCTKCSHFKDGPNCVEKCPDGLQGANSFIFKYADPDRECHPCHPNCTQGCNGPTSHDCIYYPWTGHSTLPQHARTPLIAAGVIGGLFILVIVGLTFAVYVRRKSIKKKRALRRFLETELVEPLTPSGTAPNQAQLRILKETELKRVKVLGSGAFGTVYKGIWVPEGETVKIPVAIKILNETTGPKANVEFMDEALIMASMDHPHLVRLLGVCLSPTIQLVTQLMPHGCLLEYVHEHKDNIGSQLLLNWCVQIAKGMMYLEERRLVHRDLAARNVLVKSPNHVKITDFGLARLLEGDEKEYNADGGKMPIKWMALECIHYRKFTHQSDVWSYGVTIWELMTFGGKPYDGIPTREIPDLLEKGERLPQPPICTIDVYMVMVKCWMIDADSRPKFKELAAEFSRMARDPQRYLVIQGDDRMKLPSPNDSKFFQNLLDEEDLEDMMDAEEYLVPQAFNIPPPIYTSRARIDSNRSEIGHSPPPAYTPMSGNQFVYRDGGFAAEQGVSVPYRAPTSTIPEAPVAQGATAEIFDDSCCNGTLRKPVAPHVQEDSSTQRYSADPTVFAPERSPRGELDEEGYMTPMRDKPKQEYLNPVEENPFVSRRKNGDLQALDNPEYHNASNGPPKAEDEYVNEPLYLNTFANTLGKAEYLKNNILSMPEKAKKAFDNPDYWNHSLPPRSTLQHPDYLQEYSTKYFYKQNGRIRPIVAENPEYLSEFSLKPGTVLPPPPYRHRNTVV
Chain of ErbB3 (P21860 20-1342): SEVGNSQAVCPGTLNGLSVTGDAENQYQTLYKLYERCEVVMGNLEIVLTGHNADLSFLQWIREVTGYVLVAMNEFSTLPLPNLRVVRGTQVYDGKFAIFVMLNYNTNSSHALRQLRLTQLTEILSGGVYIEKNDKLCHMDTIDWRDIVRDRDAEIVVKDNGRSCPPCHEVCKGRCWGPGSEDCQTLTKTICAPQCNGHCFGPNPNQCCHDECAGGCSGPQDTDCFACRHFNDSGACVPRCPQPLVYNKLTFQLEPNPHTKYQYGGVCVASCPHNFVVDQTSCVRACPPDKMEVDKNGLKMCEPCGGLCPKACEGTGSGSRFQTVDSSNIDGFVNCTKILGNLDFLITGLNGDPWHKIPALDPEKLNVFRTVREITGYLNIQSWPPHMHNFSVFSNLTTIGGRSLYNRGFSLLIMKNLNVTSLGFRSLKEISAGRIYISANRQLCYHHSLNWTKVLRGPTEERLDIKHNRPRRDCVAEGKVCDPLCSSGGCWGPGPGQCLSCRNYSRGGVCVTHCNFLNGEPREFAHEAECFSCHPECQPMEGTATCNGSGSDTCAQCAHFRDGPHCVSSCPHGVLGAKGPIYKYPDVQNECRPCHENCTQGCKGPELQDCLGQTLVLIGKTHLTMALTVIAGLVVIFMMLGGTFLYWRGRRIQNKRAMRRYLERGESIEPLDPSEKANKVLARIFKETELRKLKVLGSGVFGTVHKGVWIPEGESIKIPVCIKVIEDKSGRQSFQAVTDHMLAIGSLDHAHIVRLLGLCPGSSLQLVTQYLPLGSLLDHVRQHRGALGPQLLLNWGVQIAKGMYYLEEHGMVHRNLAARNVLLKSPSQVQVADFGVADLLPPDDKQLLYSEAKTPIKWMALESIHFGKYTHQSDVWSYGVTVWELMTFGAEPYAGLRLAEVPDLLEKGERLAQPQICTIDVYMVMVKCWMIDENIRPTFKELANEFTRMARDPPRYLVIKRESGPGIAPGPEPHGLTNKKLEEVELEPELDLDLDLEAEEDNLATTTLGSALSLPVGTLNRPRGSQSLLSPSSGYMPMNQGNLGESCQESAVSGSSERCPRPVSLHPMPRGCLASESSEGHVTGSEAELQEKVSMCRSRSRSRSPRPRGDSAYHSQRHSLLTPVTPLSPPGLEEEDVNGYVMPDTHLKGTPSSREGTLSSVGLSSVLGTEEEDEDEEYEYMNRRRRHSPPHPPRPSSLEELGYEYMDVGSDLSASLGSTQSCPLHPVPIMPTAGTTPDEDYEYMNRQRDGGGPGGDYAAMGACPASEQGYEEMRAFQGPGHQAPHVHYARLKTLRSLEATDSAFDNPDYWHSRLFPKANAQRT
T2 sequence (P16234 24-1089, species assumed): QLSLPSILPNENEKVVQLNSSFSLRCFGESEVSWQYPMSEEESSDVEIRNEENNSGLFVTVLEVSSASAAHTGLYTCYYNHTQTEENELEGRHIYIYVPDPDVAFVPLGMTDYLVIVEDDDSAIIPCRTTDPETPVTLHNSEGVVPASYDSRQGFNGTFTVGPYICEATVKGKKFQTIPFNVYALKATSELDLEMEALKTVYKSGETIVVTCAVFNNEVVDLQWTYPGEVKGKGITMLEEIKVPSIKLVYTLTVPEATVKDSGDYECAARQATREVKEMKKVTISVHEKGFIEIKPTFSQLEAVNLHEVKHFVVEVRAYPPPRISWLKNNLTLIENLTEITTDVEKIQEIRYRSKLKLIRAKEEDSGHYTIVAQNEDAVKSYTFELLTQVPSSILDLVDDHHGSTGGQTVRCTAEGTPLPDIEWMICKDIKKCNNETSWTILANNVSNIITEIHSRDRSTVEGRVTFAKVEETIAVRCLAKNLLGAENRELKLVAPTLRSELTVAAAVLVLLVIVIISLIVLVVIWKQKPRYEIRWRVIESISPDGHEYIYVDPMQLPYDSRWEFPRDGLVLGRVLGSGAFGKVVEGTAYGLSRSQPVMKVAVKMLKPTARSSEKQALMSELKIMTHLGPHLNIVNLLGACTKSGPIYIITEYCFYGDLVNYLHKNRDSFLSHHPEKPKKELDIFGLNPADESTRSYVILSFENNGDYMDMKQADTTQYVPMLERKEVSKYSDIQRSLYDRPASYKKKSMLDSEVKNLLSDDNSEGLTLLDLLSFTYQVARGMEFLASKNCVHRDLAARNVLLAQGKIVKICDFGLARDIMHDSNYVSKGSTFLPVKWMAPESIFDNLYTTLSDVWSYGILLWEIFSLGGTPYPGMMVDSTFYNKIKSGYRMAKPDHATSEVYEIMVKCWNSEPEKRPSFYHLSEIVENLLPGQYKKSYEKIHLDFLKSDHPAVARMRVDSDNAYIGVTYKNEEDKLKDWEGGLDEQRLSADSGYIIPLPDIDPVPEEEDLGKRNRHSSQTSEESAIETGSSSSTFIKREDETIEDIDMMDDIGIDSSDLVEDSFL
Chain of inactive form of ErbB4 (Q15303 702-1029 limits assumed): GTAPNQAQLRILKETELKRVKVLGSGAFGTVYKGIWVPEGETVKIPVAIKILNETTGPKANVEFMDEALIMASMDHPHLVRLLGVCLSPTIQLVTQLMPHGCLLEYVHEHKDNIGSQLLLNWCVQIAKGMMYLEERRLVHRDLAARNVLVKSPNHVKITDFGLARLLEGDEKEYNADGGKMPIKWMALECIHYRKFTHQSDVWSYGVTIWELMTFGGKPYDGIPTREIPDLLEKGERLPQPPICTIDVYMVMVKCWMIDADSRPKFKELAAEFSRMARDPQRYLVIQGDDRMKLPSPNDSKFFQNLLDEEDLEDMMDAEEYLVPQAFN
Chain of FKBP12 (P62942 whole entry): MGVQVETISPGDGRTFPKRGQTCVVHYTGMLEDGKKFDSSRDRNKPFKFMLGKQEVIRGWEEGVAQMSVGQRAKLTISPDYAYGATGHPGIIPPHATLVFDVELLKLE

For Cc1ccc(Nc2nccc(N(C)c3ccc4c(C)n(C)nc4c3)n2)cc1S(N)(=O)=O [pazopanib], which “patients who achieved partial response” value [1] is on record?
Its value is 3 patients.

What about the “patients who experienced a reduction in tumor volume” value ([1]; 30/35) of the same compound?
The value was 86%.

What about the “PFS and OS” value [2] of the same compound?
The value was “improved PFS and OS”.

And the Disease control rate [3]?
Its Disease control rate is 51.2%.

And the “Partial responses (patients/enrolled)” value [3]?
Its value is 7/41.

And the “Stable disease (patients/enrolled)” value [3]?
The value was 14/41.

With COc1ncc(-c2ccc3nccc(-c4ccnnc4)c3c2)cc1NS(=O)(=O)c1ccc(F)cc1F [GSK2126458, 2,4-difluoro-N-(2-methoxy-5-(4-(pyridazin-4-yl)quinolin-6-yl)pyridin-3-yl)benzenesulfonamide] as the compound, how does the Ki [4] read?
The Ki was 0.024 nM.

With O=C(c1ccc(/C=C/c2n[nH]c3ccccc23)cc1)N1CCNCC1 [KW-2449, (E)-(4-(2-(1H-indazol-3-yl)vinyl)phenyl)(piperazin-1-yl)methanone] as the compound, how does the “effect on PDGFRβ, IGF-1R, EGFR” value [5] read?
Its value is “little effect”.

With COc1cc2ncnc(Nc3ccc(F)c(Cl)c3)c2cc1OCCCN1CCOCC1 [gefitinib] as the compound, how does the Akt/Erk pathway [6] read?
Its Akt/Erk pathway is “decrease”.

What about the cell cycle [6] of the same compound?
The cell cycle was “cell cycle arrest”.

What about the “binding to ErbB3, preventing phosphorylation and therefore activation” value [7] of the same compound?
Its value is “bind”.

And the “binding to ErbB4, preventing phosphorylation and therefore activation” value [8]?
Its value is “bind”.

And the “instances of stable disease” value [9]?
Its value is 12/53.

What about the responses [9] of the same compound?
The responses was 6/53.

What about the efficacy [10] of the same compound?
Its efficacy is “some efficacy”.

And the “sensitivity of KIF5B-RET transformed cells” value [11]?
Its value is “not”.

And the “progression-free survival compared with combination chemotherapy” value ([12]; chemo-naïve patients with known EGFR mutations in their tumor)?
Its value is “significant improvement in progression-free survival”.

And the “survival benefit compared to placebo” value ([12]; patients who had progressed on first-line therapy)?
Its value is “failed to show a survival benefit”.

Which IC50 [13] does the source give for S=C(NCc1ccc2c(c1)OCO2)N1CCN(c2ncnc3c2oc2ccccc23)CC1 [Amuvatinib] here?
Its IC50 is 40 nM.

And the IC50 [14]?
The IC50 was 40 nM.

For COc1ccc(-c2cc3c(C)nc(N)nc3n([C@H]3CC[C@H](OCCO)CC3)c2=O)cn1 [PF-04691502, 2-amino-8-((1r,4r)-4-(2-hydroxyethoxy)cyclohexyl)-6-(6-methoxypyridin-3-yl)-4-methylpyrido[2,3-d]pyrimidin-7(8H)-one], which “activity against Vps34, AKT, PDK1, p70S6K, MEK, ERK, p38, or JNK” value [15] is on record?
Its value is “little activity”.

Which “activity against a panel of 12 PMTs and DNMT1” value [16] does the source give for CC(C)N(CCCNC(=O)Nc1ccc(C(C)(C)C)cc1)C[C@H]1O[C@@H](n2cc(Br)c3c(N)ncnc32)[C@H](O)[C@@H]1O [SGC 0946, 1-[3-[[[(2R,3S,4R,5R)-5-(4-Amino-5-bromo-7H-pyrrolo[2,3-d]pyrimidin-7-yl)-3,4-dihydro-xytetrahydrofuran-2-yl]methyl](isopropyl)amino]pro-pyl]-3-[4-(2,2-dimethylethyl)phenyl]urea] here?
The value was “inactive”.

Which “effect on PI3Ks” value [17] does the source give for COc1ccc(-c2ccc3c(N4CCOCC4)nc(N4C[C@@H](C)O[C@@H](C)C4)nc3n2)cc1CO [KU-0063794, (5-(2-((2R,6S)-2,6-dimethylmorpholino)-4-morpholinopyrido[2,3-d]pyrimidin-7-yl)-2-methoxyphenyl)methanol] here?
Its value is “no effect”.

With CO[C@H]1C[C@@H]2CC[C@@H](C)[C@@](O)(O2)C(=O)C(=O)N2CCCC[C@H]2C(=O)O[C@H]([C@@H](C)C[C@@H]2CC[C@@H](OCCO)[C@H](OC)C2)CC(=O)[C@H](C)/C=C(\C)[C@@H](O)[C@@H](OC)C(=O)C(C)C[C@H](C)/C=C/C=C/C=C/1C (stereo partly shown) [Everolimus, 23,27-Epoxy-3H-pyrido[2,1-c][1,4]oxaazacyclohentriacontine, rapamycin deriv] as the compound, how does the IC50 [18] read?
Its IC50 is 1.6 to 2.4 nM.

Which results are given for Cc1ccc(C(=O)Nc2ccc(CN3CCN(C)CC3)c(C(F)(F)F)c2)cc1C#Cc1cnc2cccnn12 [ponatinib]?
activity against all four Fgfr kinases [19]: substantial activity; activity against all four Fgfr kinases [20]: substantial activity

For Cn1c(=O)n(-c2ccc(C(C)(C)C#N)cc2)c2c3cc(-c4cnc5ccccc5c4)ccc3ncc21 [BEZ235, 2-methyl-2-(4-(3-methyl-2-oxo-8-(quinolin-3-yl)-2,3-dihydroimidazo[4,5-c]quinolin-1-yl)phenyl)propanenitrile], which “inhibition of Akt and PDK1” value [21] is on record?
The value was “poor inhibitory”.

Which IC50 [22] does the source give for Nc1ncnc2c1c(-c1cnc3[nH]ccc3c1)nn2C1CCCC1 [PP-121, 1-cyclopentyl-3-(1H-pyrrolo[2,3-b]pyridin-5-yl)-1H-pyrazolo[3,4-d]pyrimidin-4-amine] here?
Its IC50 is 2 nM.

Which “metastasis of Smad4-null cells” value [23] does the source give for c1ccc(-c2nn3c(c2-c2ccnc4cc(OCCN5CCOCC5)ccc24)CCC3)nc1 [LY2109761, 7-(2-morpholinoethoxy)-4-(2-(pyridin-2-yl)-5,6-dihydro-4H-pyrrolo[1,2-b]pyrazol-3-yl)quinoline] here?
Its value is “block metastasis”.

For COc1cc2c(Nc3ccc(Br)cc3F)ncnc2cc1OCC1CCN(C)CC1 [vandetanib], which PFS [24] is on record?
Its PFS is “significant improvement in PFS”.

What about the IC50 [25] of the same compound?
The IC50 was 60 nM.

And the IC50 [26]?
Its IC50 is 170 nM.

What about the IC50 [27] of the same compound?
Its IC50 is 60 nM.

What about the IC50 [28] of the same compound?
Its IC50 is 170 nM.

Which Akt/Erk pathway [6] does the source give for CS(=O)(=O)CCNCc1ccc(-c2ccc3ncnc(Nc4ccc(OCc5cccc(F)c5)c(Cl)c4)c3c2)o1 [lapatinib] here?
Its Akt/Erk pathway is “decrease”.

What about the cell cycle [6] of the same compound?
The cell cycle was “cell cycle arrest”.

And the “binding to ErbB3, preventing phosphorylation and therefore activation” value [7]?
The value was “bind”.

What about the “binding to ErbB4, preventing phosphorylation and therefore activation” value [8] of the same compound?
The value was “bind”.

And the “binding to ErbB4” value [29]?
Its value is “bind an inactive form of ErbB4”.

Which “sensitivity of cells expressing FGFR1 fusions” value [30] does the source give for Cc1nc(Nc2ncc(C(=O)Nc3c(C)cccc3Cl)s2)cc(N2CCN(CCO)CC2)n1 [dasatinib] here?
Its value is “sensitivity”.
